Where two headings read alike, the source gives them in different places.
Experiments:
[1] = tested on: AR; conditions: AR reference compounds; ref Kleinstreuer 2016; cited from earlier work
[2] = target: T1, rat AR ligand-binding domain (LBD) fused to the DNA-binding domain of GAL4 (Rattus norvegicus, UniProt P15207); assay: qHTS AR β-lactamase; type: cell-based; conditions: for AR-bla Primary Assay EC50: Inactive = efficacy below 30% of R1881's activity
T1 sequence (P15207 651-882 limits assumed): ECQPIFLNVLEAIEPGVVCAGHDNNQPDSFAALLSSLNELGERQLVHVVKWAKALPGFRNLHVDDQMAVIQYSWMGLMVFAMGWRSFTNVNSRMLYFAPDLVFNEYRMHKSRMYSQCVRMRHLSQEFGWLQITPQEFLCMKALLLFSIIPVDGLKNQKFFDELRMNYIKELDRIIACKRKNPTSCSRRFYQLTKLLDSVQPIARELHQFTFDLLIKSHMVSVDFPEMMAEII

[3] = target: AR (full receptor) (Homo sapiens, UniProt P10275); assay: qHTS AR-luciferase; type: cell-based; conditions: for AR-luc Primary Assay EC50 / AR-luc Primary Assay Efficacy: primary qHTS; for AR-luc Primary Assay EC50: Inactive = efficacy below 30% of R1881's activity; for AR-luc Efficacy / EC50: Table 3, mean ± SD, n=3; for AR-luc Efficacy / AR-luc Primary Assay Efficacy: relative to maximal efficacy of R1881; for EC50: read-out: AR-luc EC50
Chain of AR (full receptor) (P10275 whole entry, the tested form may be a part): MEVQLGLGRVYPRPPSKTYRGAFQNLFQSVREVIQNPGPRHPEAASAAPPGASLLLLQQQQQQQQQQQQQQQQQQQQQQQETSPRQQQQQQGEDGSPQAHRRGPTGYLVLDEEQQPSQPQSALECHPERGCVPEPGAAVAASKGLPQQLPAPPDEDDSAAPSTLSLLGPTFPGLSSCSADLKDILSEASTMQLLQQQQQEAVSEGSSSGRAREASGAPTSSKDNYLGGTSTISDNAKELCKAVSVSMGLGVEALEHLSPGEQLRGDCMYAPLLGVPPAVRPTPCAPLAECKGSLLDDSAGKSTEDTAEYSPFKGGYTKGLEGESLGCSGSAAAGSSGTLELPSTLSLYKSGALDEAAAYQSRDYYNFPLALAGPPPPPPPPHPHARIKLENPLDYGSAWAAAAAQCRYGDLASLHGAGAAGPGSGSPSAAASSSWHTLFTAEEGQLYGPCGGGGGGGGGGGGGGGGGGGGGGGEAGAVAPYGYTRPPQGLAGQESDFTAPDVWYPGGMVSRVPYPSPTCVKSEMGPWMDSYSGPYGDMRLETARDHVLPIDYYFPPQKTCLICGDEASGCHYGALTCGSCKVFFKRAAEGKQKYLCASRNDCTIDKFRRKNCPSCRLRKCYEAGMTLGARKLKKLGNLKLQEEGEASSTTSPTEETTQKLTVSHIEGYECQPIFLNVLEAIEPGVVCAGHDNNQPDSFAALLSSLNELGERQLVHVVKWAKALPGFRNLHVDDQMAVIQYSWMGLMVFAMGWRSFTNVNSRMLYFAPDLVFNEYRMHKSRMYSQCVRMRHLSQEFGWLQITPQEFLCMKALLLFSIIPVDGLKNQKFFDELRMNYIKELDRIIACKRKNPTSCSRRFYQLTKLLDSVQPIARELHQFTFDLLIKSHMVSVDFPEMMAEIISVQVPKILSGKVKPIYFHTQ

[4] = target: T2, AR-LBD (Rattus norvegicus, UniProt P15207); assay: Fluorescence polarization AR competition binding assay
T2 sequence (P15207 651-882 limits assumed): T1 sequence (P15207 651-882 limits assumed)

[5] = tested on: AR; conditions: ref Tamaya et al. 1986; cited from earlier work
[6] = target: estrogen receptor (Homo sapiens, UniProt P03372); assay: Analogous estrogen receptor screens; type: cell-based; conditions: data not shown
Chain of estrogen receptor (P03372 whole entry): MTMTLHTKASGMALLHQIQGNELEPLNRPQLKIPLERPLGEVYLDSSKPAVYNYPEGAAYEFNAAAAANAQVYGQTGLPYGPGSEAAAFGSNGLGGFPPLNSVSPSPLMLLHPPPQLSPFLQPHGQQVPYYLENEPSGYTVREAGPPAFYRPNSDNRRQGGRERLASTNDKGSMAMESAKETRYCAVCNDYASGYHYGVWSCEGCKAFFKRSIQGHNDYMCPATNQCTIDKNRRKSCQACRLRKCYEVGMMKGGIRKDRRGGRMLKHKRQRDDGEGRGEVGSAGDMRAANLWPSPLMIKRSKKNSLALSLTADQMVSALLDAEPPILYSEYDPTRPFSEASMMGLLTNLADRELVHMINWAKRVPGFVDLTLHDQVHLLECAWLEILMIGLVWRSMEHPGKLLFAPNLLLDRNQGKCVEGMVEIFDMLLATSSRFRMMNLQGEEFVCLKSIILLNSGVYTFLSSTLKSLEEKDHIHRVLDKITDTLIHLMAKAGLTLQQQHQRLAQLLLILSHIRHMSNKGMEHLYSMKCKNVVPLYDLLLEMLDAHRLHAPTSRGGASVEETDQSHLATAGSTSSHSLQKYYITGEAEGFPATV

[7] = tested on: rabbit; conditions: rabbit development study; ref Morinaga et al. 1996b; cited from earlier work

| Structure (SMILES) | Known AR Activity [1] | other results |
| --- | --- | --- |
| C[C@]12CCC(=O)C=C1CC[C@@H]1[C@@H]2CC[C@]2(C)C(=O)CC[C@@H]12 [4-Androstenedione] | Agonist |  |
| C[C@]12CCC(=O)C[C@@H]1CC[C@@H]1[C@@H]2CC[C@]2(C)[C@@H](O)CC[C@@H]12 [5α-Dihydrotestosterone] | Agonist |  |
| CCNc1nc(Cl)nc(NC(C)C)n1 [Atrazine] | Inactive |  |
| COC(=O)Nc1nc2ccccc2[nH]1 [Carbendazim] | Inactive | AR-bla Primary Assay EC50 ([2]; primary qHTS): Inactive^b; AR-luc Primary Assay EC50 [3]: Inactive^b |
| CC(=O)O[C@]1(C(C)=O)CC[C@H]2[C@@H]3C=C(Cl)C4=CC(=O)[C@@H]5C[C@@H]5[C@]4(C)[C@H]3CC[C@@]21C [Cyproterone acetate] | Weak Agonist |  |
| CC1(C)[C@H](C(=O)O[C@H](C#N)c2cccc(Oc3ccccc3)c2)[C@@H]1C=C(Br)Br [Deltamethrin] | Inactive | AR-bla Primary Assay EC50 ([2]; primary qHTS): Inactive^b; AR-luc Primary Assay EC50 [3]: Inactive^b |
| C[C@]12CC[C@H]3C(=CCc4cc(O)ccc43)[C@@H]1CCC2=O [Equilin] |  | EC50 [2]: 19.5 µM; AR-bla Efficacy ([2]; Table 3, mean ± SD, n=3, relative to maximal efficacy of R1881): 31.53 ± 3.88%; AR-luc Efficacy [3]: 89.27 ± 18.86%; EC50 [3]: 6.31 ± 2.03 µM; FP Binding Efficacy [4]: −89.77 ± 13.22%; IC50 [4]: 21 ± 3.41 µM |
| OC(c1ccc(Cl)cc1)(c1cncnc1)c1ccccc1Cl (stereo not shown) [Fenarimol] | Inactive |  |
| C[C@]1(O)CC[C@H]2[C@@H]3CCC4=CC(=O)CC[C@]4(C)[C@@]3(F)[C@@H](O)C[C@@]21C [Fluoxymestrone] | Agonist |  |
| CC(C)C(=O)Nc1ccc([N+](=O)[O-])c(C(F)(F)F)c1 [Flutamide] | Inactive |  |
| CC1(C)[C@@H](O[C@H]2O[C@H](C(=O)O)[C@@H](O)[C@H](O)[C@H]2O[C@@H]2O[C@H](C(=O)O)[C@@H](O)[C@H](O)[C@H]2O)CC[C@]2(C)[C@H]3C(=O)C=C4[C@@H]5C[C@@](C)(C(=O)O)CC[C@]5(C)CC[C@@]4(C)[C@]3(C)CC[C@@H]12 [Glycyrrhizin] |  | binding to AR, previously identified [5]: weak binder of AR |
| CC(C)NC(=O)N1CC(=O)N(c2cc(Cl)cc(Cl)c2)C1=O [Iprodione] | Inactive |  |
| C#C[C@]1(O)CC[C@H]2[C@@H]3CCC4=CC(=O)CC[C@@H]4[C@H]3CC[C@@]21CC [Levonorgestrel] | Agonist |  |
| CC(=O)O[C@]1(C(C)=O)CC[C@H]2[C@@H]3C[C@H](C)C4=CC(=O)CC[C@]4(C)[C@H]3CC[C@@]21C [Medroxyprogesterone acetate] | Agonist |  |
| C=C1C[C@H]2[C@@H]3C=C(C)C4=CC(=O)CC[C@]4(C)[C@H]3CC[C@]2(C)[C@@]1(OC(C)=O)C(C)=O [Melengestrol acetate] |  | AR-luc Efficacy [3]: 288.12 ± 44.83%; EC50 [3]: 0.017 ± 0.012 µM; IC50 [4]: 1.17 ± 0.2 µM; FP Binding Efficacy ([4]; mean ± SD, n=3, printed as negative values): −124.24 ± 3.58% |
| C[C@]12CCC(=O)C=C1CC[C@@H]1[C@@H]2CC[C@@]2(C)[C@H]1CC[C@]2(C)O [Methyltestosterone] | Agonist |  |
| C[C@]1(O)CC[C@H]2[C@@H]3CCC4=CC(=O)CCC4=C3C=C[C@@]21C [Methyltrienolone (R1881), Methyltrienolone] | Agonist | AR-bla Primary Assay Efficacy [2]: 0.00131 [131] % |
| C[C@]12CC[C@H]3[C@@H](CCC4=CC(=O)CC[C@@H]43)[C@@H]1CC[C@@H]2O [Nandrolone] | Agonist |  |
| CC1(C)NC(=O)N(c2ccc([N+](=O)[O-])c(C(F)(F)F)c2)C1=O [Nilutamide] | Inactive |  |
| CN1C(=O)CN=C(c2ccccc2)c2cc([N+](=O)[O-])ccc21 [Nimetazepam, nimetazepam] |  | AR-luc Primary Assay Efficacy [3]: 470% |
| C#C[C@]1(OC(C)=O)CC[C@H]2[C@@H]3CCC4=CC(=O)CC[C@@H]4[C@H]3CC[C@@]21C [Norethindrone acetate] | Agonist |  |
| C#C[C@]1(O)CC[C@H]2[C@@H]3CCC4=CC(=O)CC[C@@H]4[C@H]3CC[C@@]21C [Norethindrone] | Agonist |  |
| C#C[C@]1(O)CC[C@H]2[C@@H]3CCC4=C(CCC(=O)C4)[C@H]3CC[C@@]21C [Norethynodrel] | Agonist |  |
| CCCN(CCOc1c(Cl)cc(Cl)cc1Cl)C(=O)n1ccnc1 [Prochloraz] | Inactive |  |
| Cc1oc(=O)oc1CN1CCN(c2cc3c(cc2F)c(=O)c(C(=O)O)c2n3C(C)S2)CC1 (stereo not shown) [Prulifloxacin] |  | activity in estrogen receptor screens [6]: active; NOAEL for pregnancy [7]: 30 mg/kg; general toxicity NOAEL [7]: 10 mg/kg |
| Oc1ccc(/C=C/c2cc(O)cc(O)c2)cc1 [Resveratrol] | Inactive | AR-bla Primary Assay EC50 ([2]; primary qHTS): Inactive^b; AR-luc Primary Assay EC50 [3]: Inactive^b |
| CC/C(=C(\c1ccccc1)c1ccc(OCCN(C)C)cc1)c1ccccc1 [Tamoxifen] | Inactive |  |
| C[C@]12CC[C@H]3[C@@H](CCC4=CC(=O)CC[C@@]43C)[C@@H]1CC[C@@H]2O [Testosterone] | Agonist |  |
| C[C@]12C=CC3=C4CCC(=O)C=C4CCC3C1CC[C@@H]2O (stereo partly shown) [Trenbolone] | Agonist | AR-bla Primary Assay Efficacy ([2]; primary qHTS, relative to maximal efficacy of R1881): 105%; AR-luc Primary Assay Efficacy [3]: 122% |
| Clc1ccc(C(c2ccc(Cl)cc2)C(Cl)(Cl)Cl)cc1 [p,p’-DDT] | Inactive |  |

— publication PMC6135100 (Toxicology, 2017)
